Experimental data from patent US20230174945A1, “METHOD FOR INDUCING DIFFERENTIATION INTO PANCREATIC ALPHA CELLS” (KANEKA CORPORATION, priority 2020, published 2023).

Legend:
human iPS cells [1] = assay: Quantitative RT-PCR of cells differentiated from human iPS cells, with additives in the endodermal cell to primitive gut tube (PGT) cell step; assay type: cell-based; conditions: added to medium for 3 days when inducing endodermal cells into PGT cells (0.67 µM LDN193189, 1 µM EC23); compared to cells of Comparative Example 1; standardized by OAZ1; FIG. 1
Experimental: Differentiation was induced by the same method as in Comparative Example 1 up to the endodermal cells. For induction of differentiation from the endodermal cells into primitive gut tube (PGT) cells, the suspension culture was implemented for 3 days in a medium obtained by adding 0.67 µM LDN193189 to the medium used in Comparative Example 1, a medium obtained by adding 1 µM EC23 to the medium used in Comparative Example 1, or a medium obtained by adding both of them to the medium used in Comparative Example 1. In addition, 2.5 µM Y-27632 was added to the above-mentioned medium for the purpose of maintaining the shape of the clumps. A 30 mL single-use bioreactor was mounted on a six-channel magnetic stirrer, and while stirring at the speed of 45 rpm, the suspension culture was implemented in a 5% CO2 incubator at 37° C. Induction of differentiation after posterior foregut (PFG) cells was performed in the same method as in Comparative Example 1.
Total RNA was isolated and purified from the cells obtained by inducing differentiation in (1) using Isogen (Nippon Gene), and cDNA was synthesized from the obtained total RNA using PrimeScriptII (TaKaRa Bio Inc.). Using the obtained cDNA as a template, quantitative PCR was implemented by means of a MyiQ qPCR machine (Bio-Rad), using GoTaq qPCR master mix (Promega). For the detection, the intercalation method using SYBR Green was used, and for the gene expression level comparison, the relative quantification method by means of the ΔΔCt method or the ΔCt method was used. The expression level of each gene was standardized by OAZ1 which is a housekeeping gene.

human iPS cells [2] = assay: Measurement of GCG (glucagon) secretion amount by Glucagon ELISA; assay type: cell-based; conditions: ascorbic acid removed from differentiation medium after PGT cells (Example 2) compared to medium with 0.25 mM ascorbic acid (Example 1); 2.0 mM glucose, 1 hour; FIG. 2
Experimental: Primitive gut tube (PGT) cells were produced from human iPS cells by the same method as in Example 1. The obtained primitive gut tube (PGT) cells were induced to differentiate into cells after posterior foregut (PFG) cells using a medium obtained by removing ascorbic acid from the medium of Comparative Example 1. The cells obtained by inducing differentiation in (1) were recovered in 2 × 10^6 cells and cultured for 30 minutes in a DMEM medium (containing 2 mM glucose) containing 10 mM HEPES and 0.1 (volume/volume)% BSA. Thereafter, the cells were washed twice with a DMEM medium (without glucose) containing 10 mM HEPES and 0.1 (volume/volume)% BSA. Thereafter, the cells were cultured for 1 hour in a DMEM medium containing 1 mL of 2.0 mM glucose, 10 mM HEPES, and 0.1 (volume/volume)% BSA. Thereafter, the GCG concentration contained in the culture supernatant was measured using a Glucagon ELISA 10 µl Kit (Mercodia). The GCG secretion amounts of the cells obtained in Example 1 and Comparative Example 1 were also measured as comparison targets by the above-mentioned method.

Structure (SMILES): CC1(C)CCC(C)(C)c2cc(C#Cc3ccc(C(=O)O)cc3)ccc21 [EC23]
- expression level of the GCG gene (human iPS cells [1]): up-regulation

Structure (SMILES): c1ccc2c(-c3cnn4cc(-c5ccc(N6CCNCC6)cc5)cnc34)ccnc2c1 [LDN193189]
- expression level of the INS gene (human iPS cells [1]): down-regulation
- expression level of the NKX6.1 gene (human iPS cells [1]): down-regulation

Structure (SMILES): O=C1O[C@H]([C@@H](O)CO)C(O)=C1O [ascorbic acid]
- glucagon secretion amount (human iPS cells [2]): larger
